Data reported in patent publication US11867698B2, “Fluorogenic pH sensitive dyes and their method of use” (Life Technologies Corporation, priority 2006, dated 2024).

Columns and labels:
[1] = Fluorimetric pH titration of the sensor molecules in aqueous buffers; type: physicochemical; details: for λem / λex / pK / pKa: aqueous buffers; for λem / λex / pK: around 10 μmol/L; for S = F/F0: fluorescent response to the pH changes; for pK: fluorimetric pH titration
Method: Example 201. Fluorimetric pH titration. The study of the fluorescent response of the sensor molecules to changes in pH was performed in solution in aqueous buffers (in concentrations around 10 μmol/L).
The resulting curve has a pronounced maximum at pH 7.2 (FIG. 2).

[2] = pH titration of labeled E. coli bioparticles; type: physicochemical; details: dye labeled E. coli bioparticles 0.2 mg/mL, 50 mM potassium phosphate buffer, pH 1 to 10, FIG. 4
Method: Example 303: Labeling E. Coli bioparticles for use in assays of phagocytosis. Escherichia coli Strain K12, lyophilized cells (Sigma, EC1-5G) were resuspended in PBS at 20 mg/mL and vortexed vigorously and sonicated for several minutes. The suspensions were divided into 100 uL aliquots spun down at 10,000×g for 2 minutes, supernatants removed and resuspended in 100 uL of PBS. This was done twice to clean up the E. coli. The amine reactive SE versions of the novel pH dyes were made up in DMSO at concentration of 10 mM. For labeling, 100 uL of the E. coli suspension was combined with 100 uL of the dye stock solution, so 2 mg of E. coli was labeled with 1 umole of dye. The labeling was carried out at 37 C for 45 minutes followed by the same spin down and resuspension procedure as described above 5 times to remove free dye. The final resuspension was 10 mg/mL. pH Titration of labeled E. Coli. The fluorescence of the labeled E. coli was measured at a range of pH values in 50 mM potassium phosphate buffer, from pH 1 to 10, using a Flexstation II (Molecular Devices) plate reader. The conjugates were diluted 1:50 into the potassium phosphate buffers, so the final concentration of the labeled bioparticles was 0.2 mg/mL.

[3] = Fluorescent pH response of transferrin conjugates labeled with pH sensing dyes; type: physicochemical; details: transferrin conjugate of the labeling sensor
Method: Labeling of transferrin with pH sensing dyes. All materials are from Invitrogen unless otherwise stated. Dissolve transferrin from human serum (Sigma, T4132) in 0.1 M NaHCO3, pH 8.3, to a concentration of 10 mg/mL. Make a 10 mg/mL solution of the succinimidyl ester of the dye in dry DMSO and sonicate briefly to aid in dissolution of the dye. Add a 10 to 30-fold molar excess of the reactive dye solution to the transferrin solution dropwise while stirring. Note that the volume of dye added depends on the specific dye and the amount of transferrin to be labeled. Protect the reaction vessel from light and stir for ˜1 hour at RT. Purify the conjugate on a P-30M gel filtration column (BioRad, 150-4150) in PBS, pH 7.2. Centrifuge the conjugate at 19,000 rpm for 20 minutes to remove aggregates, if present. Determine the degree of labeling by measuring A560 nm/A280 nm.

HeLa cells = assay: Staining of endocytic recycling compartment using transferrin conjugated with pH sensing dye; type: cell-based; details: transferrin conjugate 20 ug/mL, 45 minutes, 37 C, FIG. 3
Method: Staining of endocytic recycling compartment using transferrin conjugated with pH sensing dye (compound 129). HeLa (ATCC) cells were plated in a 96 well microplate at 10,000 cells per well in McCoy 5A media with 5% FBS and 4 uM deferoxamine (Sigma). Cells were grown overnight and then rinsed 2 times in DMEM with-out phenol red plus 0.5% FBS. Transferrin conjugates were applied in same media at 20 ug/mL for 45 minutes at 37 C. Cells were then rinsed 1 time with DMEM and imaged on a Zeiss 200M inverted fluorescence microscope using a 40× objective, TRITC filters, a CoolSnap HQ (Photometrics) ccd camera, and Metamorph (Universal Imaging Corp.) acquisition software.

[4] = test system: white blood cells (granualcytes); assay: Assay of phagocytic activity in whole blood using bioparticles labeled with pH sensing dyes; type: cell-based
Method: Assay of phagocytic activity using bioparticles labeled with pH sensing dyes. A whole blood sample was collected in a sodium heparin tube. Aliquots of whole blood (100 uL) were combined with labeled E. coli (20 uL of 10 mg/mL) in 12×75 mm flow cytometry Falcon tube, and the samples were incubated in a 37° C. water bath for 15 minutes. A negative control was put on ice. After incubation, the tubes were placed in a rack and the red blood cells were lysed with 1 mL of an ammonium chloride lysis solution (0.187 M NH4Cl, 10 mM KHCO3, 0.095 mM EDTA) for 10 minutes at room temperature. The samples were centrifuged at 1200 rcf for 5 minutes, the supernatants were removed, and the cell pellets were resuspended in HBSS buffer. The resuspended cells were put into a 96 well microplate, 100 uL per well, and the plate was spun to settle the cells to the bottom of the wells. Imaging was done on a Zeiss 200M inverted fluorescence microscope using a 40× objective, TRITC filters, a CoolSnap HQ (Photometrics) ccd camera, and Metamorph (Universal Imaging Corp.) acquisition software. […] This would give an overestimation of phagocytic activity in a plate reader experiment, unless other steps were taken such as including a quencher dye.

neurons = assay: Detection of neuronal cells in mixed neuron/astroglial culture; type: cell-based, rat
Method: Astroglial feeder layers were established for one week in culture on glass bottomed culture dishes, 35 mm diameter, coated with Poly-L-Lysine. Neurons from embryonic day 18 rat hippocampi were dissociated in culture medium, and seeded onto the feeder layers at a density of 25-35,000 cells per milliliter, two milliliters per dish, and allowed to grow in neuronal culture medium plus mitotic inhibitors to prevent glial proliferation.
Cells were pre-stained for 15 minutes with 200 ng/mL Hoercsht to visualize DNA in the nuclei, and 50 ng/mL calcien AM ester to visualize cytoplasm by adding 1000×DMSO stocks of these compounds to the cells in complete medium, then returning them to the cell culture incubator for fifteen minutes at 37 degrees Celsius. Cells were removed, and the medium gently poured off. The cells were immediately placed in 5 uM Compound 129, diluted from a 1 mM DMSO stock into normal saline plus 20 mM HEPES and 20 mM glucose, final pH set to 7.4 with NaOH. The cells were incubated in labeling solution for ten minutes at room temperature, and then gently washed twice with saline (above) minus dye for imaging.

[5] = Fluorescence response of ratiometric dextran conjugates versus pH; type: physicochemical; details: 50 mM phosphate buffers
[6] = Quantum yield determination relative to pH-insensitive standard 180; type: physicochemical
Method: Example 202. Quantum yield determination. Quantum yields at pH=2.0 and pH=10.0 were determined for the compounds 178 and 179 relative to the pH-insensitive standard 180 by comparing integrated absorption and emission spectral curves.
Compounds 178 and 179 were prepared by treatment of the corresponding succinimidyl esters 111 and 129 with methoxyethylamine. The reference standard 180 was obtained in the reaction of commercial succinimidyl 5-carboxy-tetramethylpdodamine (TAMRA-5-SE) with the same amine.

| Compound | λem [1] | λex [1] | S = F/F0 [1] | pK [1] | other results |
| --- | --- | --- | --- | --- | --- |
| CCOC(=O)CCCN(CC)c1cc(OC)c(-c2cc3ccc(C(=O)OC)cc3[nH]2)cc1OC [Compound 157] | 424 nm | 349 nm | 270 | 5.4 |  |
| CCN(CCCC(=O)OC)c1cc(OC)c(-c2c3ccc(N(C)C)cc3[o+]c3cc(N(C)C)ccc23)cc1N(C)C [Compound 127, Methyl 4-((2-dimethylamino)-5-methoxyphenyl-4-tetramethylrhodaminyl)(ethyl)amino) butanoate] | 587 nm | 561 nm | 130 | 7.3 | fluorescence upon protonation (titration curve) ([1]; FIG. 1): significant increase in fluorescence upon protonation |
| CN(C)C=Nc1ccc(-c2c3ccc(=O)cc-3oc3cc(O)ccc23)c(C(=O)O)c1 [Compound 173] | 517 nm | 490 nm | 200 | 7.2 | pH of the maximum of the titration curve ([1]; FIG. 2): 7.2; pKa ([1]; FIG. 2, read-out: pKa, drop in fluorescence (amidine titration curve)): ~8; pKa ([1]; pKa, increase in fluorescence (fluorescein titration curve), FIG. 2): ~5.5 |
| CCN(CCCC(=O)ON1C(=O)CCC1=O)c1cc(O)c(-c2c3ccc(=[N+](C)C)cc-3oc3cc(N(C)C)ccc23)cc1OC.[Cl-] [Compound 189, N-(6-(dimethylamino)-9-(4-((4-(2,5-dioxopyrrolidin-1-yloxy)-4-oxobutyl)(ethyl)amino)-2-hydroxy-5-methoxyphenyl)-3H-xanthen-3-ylidene)-N-methylmethanaminium chloride] |  |  |  |  | fluorescence intensity versus pH [2]: large increase in fluorescence at acidic pHs |
| CCN(CC)c1cc2occ(-c3ncc(C(=O)O)o3)c2cc1OC [Compound 152] | 393 nm | 325 nm |  |  |  |
| CCOC(=O)CCCN(CC)c1cc(OC)c(C2=c3cc4c5c(c3Oc3c2cc2c6c3CCCN6CCC2)CCC[N+]=5CCC4)cc1N(C)C [Compound 162] | 611 nm | 587 nm | 88 | 7.2 |  |
| CCOC(=O)CCCN(CC)c1cc(OC)c(C2=c3cc4c5c(c3Oc3c2cc2c6c3CCCN6CCC2)CCC[N+]=5CCC4)cc1OC [Compound 155] | 611 nm | 586 nm | 53 | 5.0 |  |
| CCN(CCCC(=O)NCCCCCC(=O)ON1C(=O)CCC1=O)c1cc(OC)c(-c2c3ccc(=[N+](C)C)cc-3oc3cc(N(C)C)ccc23)cc1N(C)C [Compound 139] | 588 nm | 556 nm | 80 | 5.6 | S = F/F0 [3]: 15 |
| CN(C)C=Nc1ccc(-c2c3ccc(=[N+](C)C)cc-3oc3cc(N(C)C)ccc23)c(C(=O)O)c1 [Compound 175] | 576 nm | 550 nm | 10 | 7.7 |  |
| CCN(CCCC(=O)ON1C(=O)CCC1=O)c1cc(OC)c(-c2c3ccc(N(C)C)cc3[o+]c3cc(N(C)C)ccc23)cc1N(C)C [Compound 129, Succinimidyl 4-((2-Dimethylamino)-5-methoxyphenyl-4-tetramethylrhodaminyl)(ethyl)amino) butanoate] |  |  |  |  | pKa [3]: 4.2; staining pattern (HeLa cells): characteristic perinuclear staining pattern of the endocytic recycling compartment; fluorescence intensity versus pH [2]: large increase in fluorescence at acidic pHs; fluorescence of cells by flow cytometry ([4]; E. coli labeled with the dye, relative to unlabeled E. coli and iced negative control, FIG. 5): increase in fluorescence; staining seen by fluorescence microscopy ([4]; labeled E. coli, whole blood, 37° C., 15 minutes, FIG. 6): bright vesicular staining of the phagosomes filled with the engulfed E. coli within the cells; uptake by glial cells shown by acidification of the preparation (neurons): had in fact taken up; labeling of neurons relative to astrocytes (neurons; 5 uM, ten minutes, room temperature, pH 7.4, TRITC channel): appear bright over the dimly labeled astrocytes; fluorescence in the red channel versus pH ([5]; 10,000 MW dextran conjugate with rhodamine green, 0.1 mg/mL, ex 540, em 600, FIG. 10A): fluorescence does change with pH; fluorescence in the red channel versus pH ([5]; dextran conjugate with rhodamine green at a higher degree of label than Compound 129, 0.1 mg/mL, ex 540, em 600, FIG. 9A): fluorescence does change with pH |
| Ethyl 4-((2-dimethylamino)-5-methoxyphenyl-4-tetramethylrhodaminyl)(ethyl)amino) butanoate [Compound 133] | 587 nm | 561 nm | 180 | 7.3 |  |
| CCN(CCCC(=O)NCCOC)c1cc(OC)c(-c2c3ccc(=[N+](C)C)cc-3oc3cc(N(C)C)ccc23)cc1OC [Compound 178] |  |  |  |  | pKa ([6]; aqueous buffers, Table 4): 4.6; QE (pH = 2.0) ([6]; relative quantum yield, pH = 2.0, relative to standard 180): 0.78; QE (pH = 10.0) ([6]; relative quantum yield, pH = 10.0, relative to standard 180): 0.008 |
| CCN(CCCC(=O)NCCCCCN)c1cc(OC)c(-c2c3ccc(=[N+](C)C)cc-3oc3cc(N(C)C)ccc23)cc1N(C)C [Compound 141] | 588 nm | 560 nm | 65 | 7.4 |  |
